Source: article doi:10.1101/2024.03.13.583470v1, “SARS-CoV-2 methyltransferase nsp10-16 in complex with natural and drug-like purine analogs for guiding structure-based drug discovery” (biorxiv, 2024)

Molecular target: T1, nsp10-16 (Severe acute respiratory syndrome coronavirus 2, UniProt P0DTD1)
T1 construct: gene rep
Assay: X-ray crystallography, soaking
Assay type: binding
Conditions: SAM site, fully replaces SAM; 10 mM soak, pH 6.5

| Compound | X-ray crystallography, soaking |
| --- | --- |
| Nc1ncnc2c1c(I)cn2[C@@H]1O[C@H](CO)[C@@H](O)[C@H]1O [5-iodotubercidin] | toyocamycin, sangivamycin and 5-iodotubercidin share the same orientation as tubercidin |
| N#Cc1cn([C@@H]2O[C@H](CO)[C@@H](O)[C@H]2O)c2ncnc(N)c12 [toyocamycin] | toyocamycin, sangivamycin and 5-iodotubercidin share the same orientation as tubercidin |
